Reference: patent US20070122483A1, “Fluocinolone acetonide drug substance polymorphic interconversion” (priority 2005, published 2007)

How the values were obtained:
[1] = background statement; cited from earlier work
[2] = Polymorphic changes of FA after exposure to water (slurry), followed by 13C CP/MAS NMR; type: physicochemical; settings: slurry 0.5 g FA in 10 ml water, stirred at room temperature for seven days, filtered and dried
Procedure: Slurries containing 0.5 g FA in 10 ml of water were covered and stirred at room temperature for seven days. To remove the water, the samples were filtered and dried overnight at room temperature.
Approximately 80-100 mg of sample was packed inside a 7 mm rotor. Magic-angle spinning (MAS) NMR spectra of fluocinolone acetonide (FA) were acquired using a Varian Unity Inova 400 operating at 399.8 and 100.5 MHz for ^1H and ^13C respectively. The spectra were acquired using cross-polarization (CP) with total sideband suppression and a spinning speed of 4 kHz. Additional acquisition and processing parameters are noted below:
All spectra were externally referenced to hexamethylbenzene (HMB) (^13C, aliphatic peak at 17.4 ppm).

## CC1(C)O[C@@H]2C[C@H]3[C@@H]4C[C@H](F)C5=CC(=O)C=C[C@]5(C)[C@@]4(F)[C@@H](O)C[C@]3(C)[C@]2(C(=O)CO)O1 [Fluocinolone acetonide]
[1]
  solubility in water: practically insoluble
[2]
  polymorphic changes after exposure to water for an extended time period: all polymorphic forms interconvert to the same form
